Assay results from patent US9617263B2, “Phenyl-triazolo-pyridine compounds” (Eli Lilly and Company, priority 2014, dated 2017).

Tests used:
PPARα = target: T1, PPARα (Homo sapiens, UniProt Q07869); experiment: Gal4 PPARα reporter (CTF) functional assay in CV1 cells; assay type: cell-based; conditions: versus 10 μM PPAR agonist reference compound
T1 construct: expressed in transfected cells; host or cells: CV1 (African green monkey kidney)
T1 sequence (Q07869 239-466 limits assumed): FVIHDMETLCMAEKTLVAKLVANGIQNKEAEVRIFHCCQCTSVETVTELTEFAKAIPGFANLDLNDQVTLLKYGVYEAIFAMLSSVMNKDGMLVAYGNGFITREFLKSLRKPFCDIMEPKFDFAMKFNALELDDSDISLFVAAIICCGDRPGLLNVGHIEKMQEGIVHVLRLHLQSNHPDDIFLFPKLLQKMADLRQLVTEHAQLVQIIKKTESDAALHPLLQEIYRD
Protocol: (§1) Because GPR40 is known to be activated by ligands to PPARγ, exemplified compounds are examined in Gal4 PPARα, Gal4 PPARδ, and PPARγ reporter assays to determine the selectivity of exemplified compounds for PPAR receptors. CV1 cells, which are derived from the renal tissue of an African green monkey, are transfected with various receptor and reporter plasmids using Fugene. […] After 24 hours incubation with compounds, cells are lysed and luciferase activity is determined as a measure of receptor activation by luminescence. […] The maximum percent stimulation is determined versus maximum stimulation obtained with 10 μM of an appropriate PPAR agonist reference compound, 2-methyl-2-(4-{2-methyl-3-[2-(phenylcarbonyl)-4-(trifluoromethoxy)phenoxy]propoxy}phenoxy)propanoic acid. […] Efficacy was negative for PPARα, PPARδ, and PPARγ is detected with the compound of Example 1 when examined up to […] in the specific PPAR co-transfection (CTF) functional assays described above. […]

PPARδ = target: T2, PPARδ (Homo sapiens, UniProt Q03181); experiment: Gal4 PPARδ reporter (CTF) functional assay in CV1 cells; assay type: cell-based; conditions: examined up to 10 M; versus 10 μM PPAR agonist reference compound
T2 construct: expressed in transfected cells; host or cells: CV1 (African green monkey kidney)
T2 sequence (Q03181 211-439 limits assumed): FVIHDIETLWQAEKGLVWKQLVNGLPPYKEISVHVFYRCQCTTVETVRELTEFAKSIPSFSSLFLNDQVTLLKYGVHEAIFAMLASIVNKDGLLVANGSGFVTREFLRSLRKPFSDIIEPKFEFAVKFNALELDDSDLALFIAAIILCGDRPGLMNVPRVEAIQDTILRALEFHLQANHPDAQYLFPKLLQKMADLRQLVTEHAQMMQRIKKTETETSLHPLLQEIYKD
Protocol: as §1

human GPR40 (hGPR40) = target: T3, human GPR40 (hGPR40) (Homo sapiens, UniProt O14842); experiment: Radioligand competition binding with [3H]TAK-875, HEK293 membranes; conditions: 5 nM [3H]TAK-875; Cheng-Prusoff; Mean±SEM
T3 construct: expressed in transfected cells; host or cells: HEK293 (membranes)
T3 sequence (O14842 whole entry): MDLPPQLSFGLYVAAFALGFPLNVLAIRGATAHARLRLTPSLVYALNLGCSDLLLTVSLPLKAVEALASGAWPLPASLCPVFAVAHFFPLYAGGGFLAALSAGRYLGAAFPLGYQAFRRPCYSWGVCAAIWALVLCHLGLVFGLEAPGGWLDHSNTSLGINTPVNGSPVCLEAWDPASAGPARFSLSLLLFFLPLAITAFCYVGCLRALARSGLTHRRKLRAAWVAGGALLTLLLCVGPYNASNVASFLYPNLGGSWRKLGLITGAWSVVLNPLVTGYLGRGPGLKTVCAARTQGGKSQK
From the text: Competition curves are plotted as the percent specific inhibition versus concentration of compound and analyzed using a four parameter nonlinear regression fit with variable slope. […] See Cheng, Y. and Prusoff, W. H. (1973) “Relationship between the inhibition constant (Ki) and the concentration of inhibitor which causes 50 percent inhibition (IC50) of an enzymatic reaction,” Biochem Pharmacol 22(23):3099-3108. (Mean±SEM; SEM=standard error of the mean.).

mGPR40 = target: T4, mGPR40 (Mus musculus, UniProt Q76JU9); experiment: Mouse beta-arrestin agonist assay with 1% FBS (PathHunter, U2OS mFFAR1); assay type: cell-based
T4 construct: host or cells: U2OS
T4 sequence (Q76JU9 whole entry): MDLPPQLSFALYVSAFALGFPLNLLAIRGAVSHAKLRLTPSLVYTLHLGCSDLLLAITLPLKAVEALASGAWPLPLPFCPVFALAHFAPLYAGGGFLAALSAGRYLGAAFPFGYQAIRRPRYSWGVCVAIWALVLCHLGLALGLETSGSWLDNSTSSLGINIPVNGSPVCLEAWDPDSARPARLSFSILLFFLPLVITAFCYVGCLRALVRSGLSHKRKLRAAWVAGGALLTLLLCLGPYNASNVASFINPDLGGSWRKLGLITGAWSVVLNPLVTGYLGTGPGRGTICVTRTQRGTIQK
T4 sequence (P32121 whole entry partner): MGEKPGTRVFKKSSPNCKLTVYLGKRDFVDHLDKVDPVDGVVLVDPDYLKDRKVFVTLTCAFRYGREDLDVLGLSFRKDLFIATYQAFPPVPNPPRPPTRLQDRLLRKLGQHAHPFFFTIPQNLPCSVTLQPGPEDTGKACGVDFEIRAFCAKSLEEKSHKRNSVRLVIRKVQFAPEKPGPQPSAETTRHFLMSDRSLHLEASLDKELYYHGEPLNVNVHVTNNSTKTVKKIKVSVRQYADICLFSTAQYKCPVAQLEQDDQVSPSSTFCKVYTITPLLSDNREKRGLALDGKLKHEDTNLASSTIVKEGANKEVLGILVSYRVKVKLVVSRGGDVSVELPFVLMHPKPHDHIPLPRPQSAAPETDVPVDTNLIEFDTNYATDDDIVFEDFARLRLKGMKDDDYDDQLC
From the text: Human embryonic kidney (hEK293)-hFFAR1 cells are purchased from DiscoveRx. Human osteosarcoma (U2OS) cells expressing mFFAR1 are developed by DiscoveRX. These cells co-express the Prolink (PK)-tagged GPR40 and the Enzyme Acceptor (EA)-tagged beta-arrestin fusion proteins. If activation of the GPR40 stimulates beta-arrestin recruitment, it would force complementation of the beta galactosidase (B-gal) enzyme fragments, forming a B-gal enzyme that generates a chemiluminescent signal using the DiscoveRx PathHunter detection kit. Cells are incubated overnight at 5,000 cells/well in 384 well plates in culture media containing 1% FBS (fetal bovine serum). Serial diluted compounds in DMSO (2× dilutions to generate 20 concentrations) are step down diluted in culture media containing 1% FBS (fetal bovine serum) and added to cells with a final top concentration starting of 100 μM. After addition of compounds, cells are incubated for 90 min at 37° C. in 5% CO2 incubator, and DiscoveRX kit detection reagents are added. Measurement of the chemiluminescent signal is ascertained with the Envision reader, after a 1-hour incubation at room temperature. Data are fit to a 4 parameter-fit logistics to determine EC50 values; % activity is measured versus maximum response to TAK875 at 1 μM.

Male Balb/c mice = experiment: Intraperitoneal glucose tolerance test (IPGTT); assay type: in vivo, mouse
Protocol: To examine the ability of Examples 1 to 20 to activate GPR40 in-vivo resulting in desired glucose lowering efficacy, i.e. reduction in plasma glucose levels, an intraperitoneal glucose tolerance test (ipGTT) study is completed, and the data is shown for the compound tested below.
Male Balb/c (Albino mice) mice (8-9 weeks of age) are single housed, and fed with normal rodent chow diet and water ad libitum. Animals are weighed; randomized by body weight; and their daily body weights are recorded. Animals are dosed daily using a formulation carrying methylcellulose and tween-80. On the night before the study, animals are fasted. In the morning, animals are dosed orally with compound or vehicle alone 60 minutes prior to the glucose tolerance test (glucose 2 g/kg, i.p.). Blood glucose levels are determined from tail bleeds taken at 0, 3, 7, 15, 30, and 60 min after glucose challenge. […] Percent lowering in glucose is calculated from the AUC data of the compound with respect to the AUC of vehicle group. The test compound is orally administered at 0.3, 1.0, 3.0, 10, 30, or 100 mg/kg, and a positive control (3-[4-(2-methyl-benzyloxy)-phenyl]-hex-4-ynoic acid, see WO2005086661 (TAK875).) is administered at 10 mg/kg. […] Glucose levels are lowered at the 30, and 60 minute time points for the positive control.

CC#C[C@@H](CC(=O)O)c1ccc(OCc2cc(-c3ccccc3C)cn3ncnc23)cc1 [Example 1, (S)-3-[4-(6-o-Tolyl-[1,2,4]triazolo[1,5-a]pyridin-8-ylmethoxy)-phenyl]-hex-4-ynoic acid]
Efficacy for PPARα (PPARα): negative (Efficacy of <20% is considered negative)
Efficacy for PPARδ (PPARδ): negative (Efficacy of <20% is considered negative)
Ki (human GPR40 (hGPR40)): 24.6 nM
EC50 (mGPR40; 1% FBS, 90 min, read-out: mGPR40 b-arrestin EC50): 4.02 nM
mGPR40 b-arrestin % stimulation max (FA) (mGPR40; versus maximum response to TAK875 at 1 μM): 160%
Glucose levels compared to vehicle control (Male Balb/c mice; 30 and 60 minute time points, Example 1 at 10, 30, 100 mg/kg oral, positive control 10 mg/kg): significantly lowered
ED50 (Male Balb/c mice; Mus musculus, oral, 60 min before glucose 2 g/kg i.p., read-out: ED50 based on AUCs for glucose lowering): 7.9 mg/kg
